Data taken from ChEMBL document CHEMBL5154726, “Identification of triazolopyridine derivatives as a new class of AhR agonists and evaluation of anti-psoriasis effect in a mouse model” (Eur J Med Chem, 2022).
pEC50, pIC50: −log10 of the molar value. ≈ marks a conversion by molar mass, not a printed value.

How the values were obtained:
[1] = target: T1, Aryl hydrocarbon receptor (Homo sapiens, UniProt P35869); experiment: Agonist activity at AhR in human recombinant HepG2-Lucia AhR cell incubated for 24 hrs by luciferase reporter gene assay; format: cell-based
T1 sequence (P35869 whole entry): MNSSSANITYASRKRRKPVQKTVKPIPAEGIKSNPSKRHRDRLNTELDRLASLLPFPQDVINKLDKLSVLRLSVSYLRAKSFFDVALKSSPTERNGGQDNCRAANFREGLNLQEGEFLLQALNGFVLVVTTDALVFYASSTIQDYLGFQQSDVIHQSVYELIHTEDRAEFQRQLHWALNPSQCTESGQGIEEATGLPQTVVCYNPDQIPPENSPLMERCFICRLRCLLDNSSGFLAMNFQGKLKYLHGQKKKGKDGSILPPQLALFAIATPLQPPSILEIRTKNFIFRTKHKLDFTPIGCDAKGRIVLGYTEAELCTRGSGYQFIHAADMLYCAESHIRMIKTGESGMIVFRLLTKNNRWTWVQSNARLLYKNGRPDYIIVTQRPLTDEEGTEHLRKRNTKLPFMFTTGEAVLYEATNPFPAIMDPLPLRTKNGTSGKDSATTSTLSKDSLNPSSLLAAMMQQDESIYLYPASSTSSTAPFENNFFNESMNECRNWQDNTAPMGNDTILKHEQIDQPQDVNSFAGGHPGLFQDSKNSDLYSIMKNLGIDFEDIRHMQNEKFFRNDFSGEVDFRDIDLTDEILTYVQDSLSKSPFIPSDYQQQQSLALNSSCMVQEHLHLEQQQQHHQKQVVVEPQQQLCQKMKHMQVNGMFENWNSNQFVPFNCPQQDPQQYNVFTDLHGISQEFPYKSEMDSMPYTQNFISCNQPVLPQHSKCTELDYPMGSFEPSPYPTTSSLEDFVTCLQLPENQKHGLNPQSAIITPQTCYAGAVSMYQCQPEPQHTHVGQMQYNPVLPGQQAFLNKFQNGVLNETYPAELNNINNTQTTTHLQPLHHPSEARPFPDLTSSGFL

[2] = Induction of apoptosis in human CD4+ve Th cells; format: toxicity, cell-based
[3] = Apparent permeability in MDCK cells at 50 uM incubated for 90 mins by LC/MS analysis; format: ADME, cell-based, Canis lupus familiaris; conditions: dog
[4] = Efflux ratio of apparent permeability in MDCK cells; format: ADME, cell-based, Canis lupus familiaris; conditions: dog
[5] = Solubility of the compound incubated for 48 hrs under shaking condition by LC/MS analysis; format: physicochemical
[6] = n-Octanol/water partition coefficient, logD of the compound at 1 mg incubated for 48 hrs under shaking condition by LC/MS analysis; format: physicochemical

Clc1ccc2nc(-c3ccc(Br)cc3)nn2c1
pEC50 [1]: 6.81

Brc1ccc(-c2nc3cccc(Br)n3n2)cc1
pEC50 [1]: 6.20

[O-][n+]1c(-c2ccc(Br)cc2)nc2cc(F)ccn21
pEC50 [1]: 7.08

FC(F)(F)c1ccc(-c2nc3ccc(Br)cn3n2)cc1
pEC50 [1]: 9.36

Brc1ccc(-c2nc3cc4ccccc4cn3n2)cc1
pEC50 [1]: < 5.00

[O-][n+]1c(-c2ccc(Br)cc2)nc2cc(Br)ccn21
pEC50 [1]: 7.21

N#Cc1ccc2nc(-c3ccc(Br)cc3)[n+]([O-])n2c1
pEC50 [1]: 7.11

CC(C)c1c(O)cc(/C=C/c2ccccc2)cc1O [TAPINAROF]
pIC50 [2]: 5.28

Brc1ccc2nc(-c3ccccc3Br)nn2c1
pEC50 [1]: 5.61

[O-][n+]1c(-c2ccc(F)cc2)nc2ccccn21
pEC50 [1]: < 5.00

[O-][n+]1c(-c2ccc(Br)cc2)nc2ccc(Br)cn21
pEC50 [1]: 9.57
Papp at 1.5 h, 50 µM [3]: 1.43 ×10⁻⁶ cm/s
efflux ratio [4]: 6.2
solubility thermodynamic at 48 h [5]: 2.24 µg/mL (≈ 6.07 µM)
logD at 48 h [6]: 2.59

Brc1ccc(-c2nc3ccc(-c4ccccc4)cn3n2)cc1
pEC50 [1]: < 5.00

Cc1ccc(-c2nc3ccc(Br)cn3n2)cc1
pEC50 [1]: 5.72

[O-][n+]1c(-c2ccc(Br)cc2)nc2c(Br)cccn21
pEC50 [1]: 6.43

COC(=O)c1ccc(-c2nc3ccccn3[n+]2[O-])cc1
pEC50 [1]: < 5.00

[O-][n+]1c(-c2ccc(Br)cc2)nc2ccc(Cl)cn21
pEC50 [1]: 9.47

Fc1ccc(-c2nc3ccc(Br)cn3n2)cc1
pEC50 [1]: 5.93

[O-][n+]1c(-c2ccc(Br)cc2)nc2cc(Cl)ccn21
pEC50 [1]: 6.57

[O-][n+]1c(-c2ccc(Br)cc2)nc2ccccn21
pEC50 [1]: 5.60

Fc1ccc2nc(-c3ccc(Br)cc3)nn2c1
pEC50 [1]: 6.18

Brc1cccc(-c2nc3ccc(Br)cn3n2)c1
pEC50 [1]: 8.02

[O-][n+]1c(-c2ccc(Br)cc2)nc2ccc(F)cn21
pEC50 [1]: 5.96

[O-][n+]1c(-c2ccc(Cl)cc2)nc2ccccn21
pEC50 [1]: 5.48

Clc1ccc(-c2nc3ccc(Br)cn3n2)cc1
pEC50 [1]: 9.08

N#Cc1ccc2nc(-c3ccc(Br)cc3)nn2c1
pEC50 [1]: 7.64

COc1ccc(-c2nc3ccccn3[n+]2[O-])cc1
pEC50 [1]: < 5.00

Brc1ccc2nc(-c3ccccc3)nn2c1
pEC50 [1]: < 5.00

Cc1ccc2nc(-c3ccc(Br)cc3)[n+]([O-])n2c1
pEC50 [1]: 6.07

[O-][n+]1c(-c2ccc(Br)nc2)nc2ccccn21
pEC50 [1]: < 5.00

Brc1ccc(-c2nc3cc(Br)ccn3n2)cc1
pEC50 [1]: 6.20

[O-][n+]1c(-c2ccncc2)nc2ccccn21
pEC50 [1]: 5.33

[O-][n+]1c(-c2ccc(-c3ccc(Cl)cc3)o2)nc2ccccn21
pEC50 [1]: < 5.00

[O-][n+]1c(-c2ccc3ccccc3c2)nc2ccccn21
pEC50 [1]: < 5.00

[O-][n+]1c(-c2ccc(Br)cc2)nc2ccc(C(F)(F)F)cn21
pEC50 [1]: 6.12

[O-][n+]1c(-c2ccc(Br)cc2)nc2cccc(Br)n21
pEC50 [1]: 6.69

Brc1ccc(-c2nc3c(Br)cccn3n2)cc1
pEC50 [1]: 6.76

Cc1ccc2nc(-c3ccc(Br)cc3)nn2c1
pEC50 [1]: < 5.00

[O-][n+]1c(-c2cccnc2)nc2ccccn21
pEC50 [1]: < 5.00
